We go through 24 compounds from patent US8796256B2 (Janssen Pharmaceutica NV, priority 2010, dated 2014).

pEC50: −log10 of the molar value.

The experiment has as its target T1, ERR1 (also known as ERR-α or ERR-1) (Homo sapiens, UniProt P11474).
T1 sequence (P11474 193-421 limits assumed): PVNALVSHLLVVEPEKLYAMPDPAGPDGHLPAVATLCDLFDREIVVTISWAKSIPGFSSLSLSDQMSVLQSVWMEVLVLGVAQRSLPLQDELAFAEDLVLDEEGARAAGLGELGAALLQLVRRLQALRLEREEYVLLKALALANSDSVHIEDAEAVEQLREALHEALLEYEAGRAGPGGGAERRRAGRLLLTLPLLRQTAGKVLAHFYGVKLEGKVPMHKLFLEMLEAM
The experiment is described as follows: TR-FRET assay (disruption of co-activator peptide binding to ERR1 LBD). The format is biochemical. Conditions: 6 nM 6His-ERR1LBD, 6 nM GST-SRC-2 peptide; average of 3 independent experiments. An outline of the steps: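 Homogeneous TR-FRET measuring displacement of GST-hSRC2 co-activator peptide (6 nM) from His-tagged ERR1 LBD (6 nM), detected with α-GST Eu cryptate (30 nM) and α-His-XL665 (7.5 nM). Buffer 25 mM Tris pH 8, 2.5 mM Hepes, 20 mM KCl, 1 mM DTT, 0.05 mg/mL delipidated BSA; equilibration 4-18 h at 25° C. Hyperbolic dose-response fit, mean of 3 experiments.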
(TR-FRET usually uses a lanthanide donor and a delayed reading to cut background.)
For `CN1CCO[C@H](CN2C(=O)S/C(=C\c3ccc4c(cnn4Cc4ccc(Cl)cc4C(F)(F)F)c3)C2=O)C1` [Compound 192, (5Z)-5-({1-[4-Chloro-2-(trifluoromethyl)benzyl]-1H-indazol-5-yl}methylidene)-3-{[(2S)-4-methylmorpholin-2-yl]methyl}-1,3-thiazolidine-2,4-dione], the pEC50 is 7.35. The compound `CCOC(=O)C(Cc1ccccn1)N1C(=O)S/C(=C\c2ccc3c(cnn3Cc3ccc(Cl)cc3C(F)(F)F)c2)C1=O` (stereo not drawn) [Compound 211, Ethyl 2-[(5Z)-5-({1-[4-chloro-2-(trifluoromethyl)benzyl]-1H-indazol-5-yl}methylidene)-2,4-dioxo-1,3-thiazolidin-3-yl]-3-pyridin-2-ylpropanoate] gave a pEC50 of 7.04.

The compound `CN1CC[C@@H](N2C(=O)S/C(=C\c3ccc4c(cnn4Cc4ccc(C(F)(F)F)cc4C(F)(F)F)c3)C2=O)[C@H](F)C1` (relative stereo) [Compound 278, (5Z)-5-({1-[2,4-Bis(trifluoromethyl)benzyl]-1H-indazol-5-yl}methylidene)-3-(trans-3-fluoro-1-methylpiperidin-4-yl)-1,3-thiazolidine-2,4-dione] showed a pEC50 of 7.15. The compound `Cc1noc(C)c1S(=O)(=O)NCCN1C(=O)S/C(=C\c2ccc3c(cnn3Cc3ccc(Cl)cc3C(F)(F)F)c2)C1=O` [Compound 419, N-{2-[(5Z)-5-({1-[4-Chloro-2-(trifluoromethyl)benzyl]-1H-indazol-5-yl}methylidene)-2,4-dioxo-1,3-thiazolidin-3-yl]ethyl}-3,5-dimethylisoxazole-4-sulfonamide] showed a pEC50 of 6.94.

Take `COc1ccc(Cn2ncc3cc(/C=C4\SC(=O)N(CCN(C)C)C4=O)ccc32)c(C(F)(F)F)c1` [Compound 9, (5Z)-3-[2-(Dimethylamino)ethyl]-5-[(1-{[4-(methyloxy)-2-(trifluoromethyl)phenyl]-methyl}-1H-indazol-5-yl)methylidene]-1,3-thiazolidine-2,4-dione]: the pEC50 was 8.40. For `N[C@H]1CC[C@H](N2C(=O)S/C(=C\c3ccc4c(cnn4Cc4ccc(Cl)cc4C(F)(F)F)c3)C2=O)CC1` [Compound 176, (5Z)-3-(trans-4-Aminocyclohexyl)-5-({1-[4-chloro-2-(trifluoromethyl)benzyl]-1H-indazol-5-yl}methylidene)-1,3-thiazolidine-2,4-dione] the value was 7.24; for `O=C1S/C(=C\c2ccc3c(cnn3Cc3ccc(Cl)cc3C(F)(F)F)c2)C(=O)N1C[C@@H]1C[C@@H](F)CN1` [Compound 184, (5Z)-5-({1-[4-Chloro-2-(trifluoromethyl)benzyl]-1H-indazol-5-yl}methylidene)-3-{[(2S,4R)-4-fluoropyrrolidin-2-yl]methyl}-1,3-thiazolidine-2,4-dione], 6.85; for `O=C1S/C(=C\c2ccc3c(cnn3Cc3ccc(Cl)cc3C(F)(F)F)c2)C(=O)N1C1CCNCC1` [Compound 113, (5Z)-5-({1-[4-Chloro-2-(trifluoromethyl)benzyl]-1H-indazol-5-yl}methylidene)-3-piperidin-4-yl-1,3-thiazolidine-2,4-dione], 7.80. In the case of `O=C1S/C(=C\c2ccc3c(cnn3Cc3ccc(Cl)cc3C(F)(F)F)c2)C(=O)N1[C@@H]1CCN[C@@H](CO)C1` (relative stereo) [Compound 269, (5Z)-5-({1-[4-Chloro-2-(trifluoromethyl)benzyl]-1H-indazol-5-yl}methylidene)-3-[trans-2-(hydroxymethyl)piperidin-4-yl]-1,3-thiazolidine-2,4-dione], the pEC50 is 7.17. `O=C1S/C(=C\c2ccc3c(cnn3Cc3ccc(C(F)(F)F)cc3C(F)(F)F)c2)C(=O)N1O` [Compound 291, (5Z)-5-({1-[2,4-Bis(trifluoromethyl)benzyl]-1H-indazol-5-yl}methylidene)-3-hydroxy-1,3-thiazolidine-2,4-dione] showed a pEC50 of 7.33. For `O=C1S/C(=C\c2ccc3c(cnn3Cc3ccc(Cl)cc3C(F)(F)F)c2)C(=O)N1CCN1CCC(F)(F)C1` [Compound 116, (5Z)-5-({1-[4-Chloro-2-(trifluoromethyl)benzyl]-1H-indazol-5-yl}methylidene)-3-[2-(3,3-difluoropyrrolidin-1-yl)ethyl]-1,3-thiazolidine-2,4-dione] the value was 6.74; for `COC(=O)C(Cc1cn(C)cn1)N1C(=O)S/C(=C\c2ccc3c(cnn3Cc3ccc(Cl)cc3C(F)(F)F)c2)C1=O` (stereo not drawn) [Compound 214, Methyl 2-[(5Z)-5-({1-[4-chloro-2-(trifluoromethyl)benzyl]-1H-indazol-5-yl}methylidene)-2,4-dioxo-1,3-thiazolidin-3-yl]-3-(1-methyl-1H-imidazol-4-yl)propanoate], 7.36.

`COC(=O)[C@@H]1C[C@@H](N2C(=O)S/C(=C\c3ccc4c(cnn4Cc4ccc(Cl)cc4C(F)(F)F)c3)C2=O)CN1` [Compound 180, Methyl (4R)-4-[(5Z)-5-({1-[4-chloro-2-(trifluoromethyl)benzyl]-1H-indazol-5-yl}methylidene)-2,4-dioxo-1,3-thiazolidin-3-yl]-L-prolinate]: the pEC50 was 7.49. The pEC50 values of the last two compounds are within 0.2 log units of each other. The result for `Cc1nc(CN2C(=O)S/C(=C\c3ccc4c(cnn4Cc4ccc(Cl)cc4C(F)(F)F)c3)C2=O)n[nH]1` [Compound 86, (5Z)-5-({1-[4-Chloro-2-(trifluoromethyl)benzyl]-1H-indazol-5-yl}methylidene)-3-[(5-methyl-1H-1,2,4-triazol-3-yl)methyl]-1,3-thiazolidine-2,4-dione] reads 7.05; that for `O=C1S/C(=C\c2ccc3c(cnn3Cc3ccc(Cl)cc3C(F)(F)F)c2)C(=O)N1C[C@@H]1C[C@@H](O)CN1CCO` [Compound 186, (5Z)-5-({1-[4-Chloro-2-(trifluoromethyl)benzyl]-1H-indazol-5-yl}methylidene)-3-{[(2S,4R)-4-hydroxy-1-(2-hydroxyethyl)pyrrolidin-2-yl]methyl}-1,3-thiazolidine-2,4-dione], 7.27; that for `CC(=O)Nc1nc(CN2C(=O)S/C(=C\c3ccc4c(cnn4Cc4ccc(Cl)cc4C(F)(F)F)c3)C2=O)cs1` [Compound 413, N-(4-{[(5Z)-5-({1-[4-Chloro-2-(trifluoromethyl)benzyl]-1H-indazol-5-yl}methylidene)-2,4-dioxo-1,3-thiazolidin-3-yl]methyl}-1,3-thiazol-2-yl)acetamide], 6.51.

`CN(CCN1C(=O)S/C(=C\c2ccc3c(cnn3Cc3ccc(Cl)cc3C(F)(F)F)c2)C1=O)S(=O)(=O)c1ccc(C(F)(F)F)cc1` [Compound 395, N-{2-[(5Z)-5-({1-[4-Chloro-2-(trifluoromethyl)benzyl]-1H-indazol-5-yl}methylidene)-2,4-dioxo-1,3-thiazolidin-3-yl]ethyl}-N-methyl-4-(trifluoromethyl) benzenesulfonamide]: the pEC50 is 6.34.

Turning to `O=C(O)C1CC(N2C(=O)S/C(=C\c3ccc4c(cnn4Cc4ccc(C(F)(F)F)cc4C(F)(F)F)c3)C2=O)C1` (stereo not drawn) [Compound 70, 3-[(5Z)-5-({1-[2,4-Bis(trifluoromethyl)benzyl]-1H-indazol-5-yl}methylidene)-2,4-dioxo-1,3-thiazolidin-3-yl]cyclobutanecarboxylic acid], the pEC50 is 7.32. Consider `O=C1S/C(=C\c2ccc3c(cnn3Cc3ccc(Cl)cc3C(F)(F)F)c2)C(=O)N1CCN1CC(O)C1` [Compound 115, (5Z)-5-({1-[4-Chloro-2-(trifluoromethyl)benzyl]-1H-indazol-5-yl}methylidene)-3-[2-(3-hydroxyazetidin-1-yl)ethyl]-1,3-thiazolidine-2,4-dione], for which the pEC50 was 6.89. This pEC50 is 0.43 log units lower than that of the compound before. `COc1ccc(Cn2ncc3cc(/C=C4\SC(=O)N(CCN5CC[C@H](O)C5)C4=O)ccc32)c(C(F)(F)F)c1` [Compound 14, (5Z)-3-{2-[(3S)-3-Hydroxypyrrolidin-1-yl]ethyl}-5-({1-[4-methoxy-2-(trifluoromethyl)benzyl]-1H-indazol-5-yl}methylidene)-1,3-thiazolidine-2,4-dione] showed a pEC50 of 7.00.

`CNN1C(=O)S/C(=C\c2ccc3c(cnn3Cc3ccc(C(F)(F)F)cc3C(F)(F)F)c2)C1=O` [Compound 357, (5Z)-5-({1-[2,4-Bis(trifluoromethyl)benzyl]-1H-indazol-5-yl}methylidene)-3-(methylamino)-1,3-thiazolidine-2,4-dione] showed a pEC50 of 7.41. `N=C(N)NOCCN1C(=O)S/C(=C\c2ccc3c(ccn3Cc3ccc(Cl)cc3C(F)(F)F)c2)C1=O` [Compound 257, 1-{2-[(5Z)-5-({1-[4-Chloro-2-(trifluoromethyl)benzyl]-1H-indol-5-yl}methylidene)-2,4-dioxo-1,3-thiazolidin-3-yl]ethoxy}guanidine] showed a pEC50 of 7.13. Compared with the last compound, the pEC50 is 0.28 log units lower.

`NS(=O)(=O)CN1C(=O)S/C(=C\c2ccc3c(cnn3Cc3ccc(F)cc3C(F)(F)F)c2)C1=O` [Compound 61, 1-[(5Z)-5-({1-[4-Fluoro-2-(trifluoromethyl)benzyl]-1H-indazol-5-yl}methylidene)-2,4-dioxo-1,3-thiazolidin-3-yl]methanesulfonamide]: the pEC50 was 6.57. For `N#Cc1nn(Cc2ccc(Cl)cc2C(F)(F)F)c2ccc(/C=C3\SC(=O)N(CC(=O)O)C3=O)cc12` [Compound 416, [(5Z)-5-({1-[4-Chloro-2-(trifluoromethyl)benzyl]-3-cyano-1H-indazol-5-yl}methylidene)-2,4-dioxo-1,3-thiazolidin-3-yl]acetic acid] the value was 7.46.

As usually defined, the pEC50 is −log10 of the EC50, conventionally taken in molar units. The low end stands for a high EC50, the high end for a low EC50.
